Measured values published in patent US8969360B2, “Compounds useful as inhibitors of ATR kinase” (Vertex Pharmaceuticals Incorporated, priority 2013, dated 2015).

Legend:
[1] = system: HCT116 colorectal cancer cells; experiment: Cisplatin Sensitization Assay (96 h cell viability MTS); assay type: cell-based; conditions: concentration of compound required to reduce the IC50 of Cisplatin alone by at least 3-fold; HCT116, 96 h MTS
Protocol: Compounds can be screened for their ability to sensitize HCT116 colorectal cancer cells to Cisplatin using a 96 h cell viability (MTS) assay. […] Compounds and Cisplatin are then both added simultaneously to the cell media in 2-fold serial dilutions from a top final concentration of 10 μM as a full matrix of concentrations in a final cell volume of 200 μl, and the cells are then incubated at 37° C. in 5% CO2. After 96 h, 40 μl of MTS reagent (Promega G358a) is added to each well and the cells are incubated for 1 h at 37° C. in 5% CO2. Finally, absorbance is measured at 490 nm using a SpectraMax Plus 384 reader (Molecular Devices) and the concentration of compound required to reduce the IC50 of Cisplatin alone by at least 3-fold (to 1 decimal place) can be reported.
Compounds with a Cisplatin sensitization value of <0.02 μM are marked with “+++.” Compounds with a Cisplatin sensitization value>0.02 μM but <0.2 μM are marked with “++.” Compounds with a Cisplatin sensitization value >0.2 μM but <5 μM are marked with “+.”

ATR kinase = target: T1, ATR kinase (Homo sapiens, UniProt Q13535); experiment: ATR Inhibition Assay (radioactive-phosphate incorporation); assay type: biochemical; conditions: Ki(app); 5 nM full-length ATR, 10 μM ATP, 800 μM target peptide, 25° C.
T1 construct: Assays were carried out at 25° C. in the presence of 5 nM full-length ATR
Protocol: Compounds were screened for their ability to inhibit ATR kinase using a radioactive-phosphate incorporation assay. Assays were carried out in a mixture of 50 mM Tris/HCl (pH 7.5), 10 mM MgCl2 and 1 mM DTT. Final substrate concentrations were 10 μM [γ-33P]ATP (3 mCi 33P ATP/mmol ATP, Perkin Elmer) and 800 μM target peptide (ASELPASQPQPFSAKKK (SEQ. ID NO: 1)).
Assays were carried out at 25° C. in the presence of 5 nM full-length ATR. An assay stock buffer solution was prepared containing all of the reagents listed above, with the exception of ATP and the test compound of interest. 13.5 μL of the stock solution was placed in a 96 well plate followed by addition of 2 μL of DMSO stock containing serial dilutions of the test compound (typically starting from a final concentration of 15 μM with 3-fold serial dilutions) in duplicate (final DMSO concentration 7%). The plate was pre-incubated for 10 minutes at 25° C. and the reaction initiated by addition of 15 μL [γ-33P]ATP (final concentration 10 μM).
The reaction was stopped after […] by the addition of 30 μL, 0.1M phosphoric acid containing 2 mM ATP. A multiscreen phosphocellulose filter 96-well plate (Millipore, Cat no. MAPHN0B50) was pretreated with 100 μL 0.2M phosphoric acid prior to the addition of 45 μL of the stopped assay mixture. The plate was washed with 5×200 μL 0.2M phosphoric acid. After drying, 100 μL Optiphase ‘SuperMix’ liquid scintillation cocktail (Perkin Elmer) was added to the well prior to scintillation counting (1450 Microbeta Liquid Scintillation Counter, Wallac).
After removing mean background values for all of the data points, Ki(app) data were calculated from non-linear regression analysis of the initial rate data using the Prism software package (GraphPad Prism version 3.0cx for Macintosh, GraphPad Software, San Diego Calif., USA).
Compounds with a Ki value of <0.01 μM are marked with “+++.” Compounds with a Ki value >0.01 μM but <1 μM are marked with “++.” Compounds with a Ki value >1 μM but <5 μM are marked with “+.”

T1 sequence (Q13535 whole entry): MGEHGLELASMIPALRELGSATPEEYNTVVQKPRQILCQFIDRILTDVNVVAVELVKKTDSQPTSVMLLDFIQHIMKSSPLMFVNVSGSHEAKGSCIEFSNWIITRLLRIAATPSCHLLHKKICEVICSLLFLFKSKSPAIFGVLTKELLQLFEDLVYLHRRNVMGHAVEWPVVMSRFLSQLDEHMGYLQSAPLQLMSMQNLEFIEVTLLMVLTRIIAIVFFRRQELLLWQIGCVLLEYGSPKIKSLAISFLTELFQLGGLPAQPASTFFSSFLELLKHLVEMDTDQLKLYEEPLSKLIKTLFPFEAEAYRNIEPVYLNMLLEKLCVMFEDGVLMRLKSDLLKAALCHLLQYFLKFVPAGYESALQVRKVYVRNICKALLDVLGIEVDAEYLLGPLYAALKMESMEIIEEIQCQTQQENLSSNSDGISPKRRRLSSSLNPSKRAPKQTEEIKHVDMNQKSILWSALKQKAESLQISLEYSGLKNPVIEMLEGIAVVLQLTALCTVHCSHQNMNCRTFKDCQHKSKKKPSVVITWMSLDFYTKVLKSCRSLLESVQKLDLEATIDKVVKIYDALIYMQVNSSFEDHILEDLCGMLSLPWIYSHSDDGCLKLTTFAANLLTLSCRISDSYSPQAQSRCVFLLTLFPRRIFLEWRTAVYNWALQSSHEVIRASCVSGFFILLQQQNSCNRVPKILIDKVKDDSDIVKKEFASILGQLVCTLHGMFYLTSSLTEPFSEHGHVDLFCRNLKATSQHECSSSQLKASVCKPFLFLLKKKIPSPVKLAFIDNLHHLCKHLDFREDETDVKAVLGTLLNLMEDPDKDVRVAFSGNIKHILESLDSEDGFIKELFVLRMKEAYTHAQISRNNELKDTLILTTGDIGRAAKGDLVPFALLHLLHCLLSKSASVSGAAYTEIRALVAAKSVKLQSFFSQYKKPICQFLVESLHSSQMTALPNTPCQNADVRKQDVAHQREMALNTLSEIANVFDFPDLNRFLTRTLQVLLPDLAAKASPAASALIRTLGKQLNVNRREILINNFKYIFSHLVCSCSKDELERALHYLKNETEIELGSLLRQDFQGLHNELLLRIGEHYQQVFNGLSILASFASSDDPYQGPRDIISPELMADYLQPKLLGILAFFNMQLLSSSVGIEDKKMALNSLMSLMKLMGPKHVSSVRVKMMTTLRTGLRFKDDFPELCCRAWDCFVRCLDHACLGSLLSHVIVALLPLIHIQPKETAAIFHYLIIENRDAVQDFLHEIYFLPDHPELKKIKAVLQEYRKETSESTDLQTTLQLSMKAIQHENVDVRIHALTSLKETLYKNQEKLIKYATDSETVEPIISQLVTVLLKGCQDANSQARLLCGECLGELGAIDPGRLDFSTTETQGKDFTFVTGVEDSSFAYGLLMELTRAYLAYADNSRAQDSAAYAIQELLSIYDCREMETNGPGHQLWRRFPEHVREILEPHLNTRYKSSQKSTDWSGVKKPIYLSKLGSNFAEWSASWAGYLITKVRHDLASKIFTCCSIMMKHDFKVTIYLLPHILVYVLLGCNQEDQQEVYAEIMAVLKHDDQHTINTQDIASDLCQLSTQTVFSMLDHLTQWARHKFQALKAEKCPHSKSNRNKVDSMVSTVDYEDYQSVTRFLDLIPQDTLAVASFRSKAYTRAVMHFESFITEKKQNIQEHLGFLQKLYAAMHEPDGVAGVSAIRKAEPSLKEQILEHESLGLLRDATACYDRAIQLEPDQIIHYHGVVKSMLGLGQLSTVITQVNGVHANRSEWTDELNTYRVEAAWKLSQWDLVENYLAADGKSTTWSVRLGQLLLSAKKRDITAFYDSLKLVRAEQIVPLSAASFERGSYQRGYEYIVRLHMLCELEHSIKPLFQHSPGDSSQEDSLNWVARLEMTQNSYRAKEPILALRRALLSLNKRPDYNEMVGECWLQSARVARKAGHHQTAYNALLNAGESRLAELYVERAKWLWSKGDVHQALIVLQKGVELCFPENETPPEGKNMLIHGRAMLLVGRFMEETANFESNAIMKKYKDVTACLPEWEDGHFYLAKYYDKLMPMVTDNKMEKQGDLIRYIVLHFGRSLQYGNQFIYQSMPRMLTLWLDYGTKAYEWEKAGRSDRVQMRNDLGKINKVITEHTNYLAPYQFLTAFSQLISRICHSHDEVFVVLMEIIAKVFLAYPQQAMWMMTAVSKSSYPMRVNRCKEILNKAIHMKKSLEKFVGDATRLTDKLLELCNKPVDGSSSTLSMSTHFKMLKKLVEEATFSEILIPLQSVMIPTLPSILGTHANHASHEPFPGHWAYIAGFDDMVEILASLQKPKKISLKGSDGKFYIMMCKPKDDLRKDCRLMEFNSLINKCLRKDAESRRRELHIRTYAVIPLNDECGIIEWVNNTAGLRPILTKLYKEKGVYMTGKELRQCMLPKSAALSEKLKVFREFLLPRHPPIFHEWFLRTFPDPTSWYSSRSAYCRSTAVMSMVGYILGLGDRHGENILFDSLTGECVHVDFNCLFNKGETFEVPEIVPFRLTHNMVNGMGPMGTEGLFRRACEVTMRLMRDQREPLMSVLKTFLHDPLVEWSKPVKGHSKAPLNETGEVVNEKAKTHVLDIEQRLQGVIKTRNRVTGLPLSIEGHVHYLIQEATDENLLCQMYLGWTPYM

Row | Compound | Synergy with Cisplatin [1] | Ki (ATR kinase) [nM]
1 | Nc1nn2ccc(C(F)(F)F)nc2c1C(=O)Nc1cnccc1O[C@H]1CCOC1 [I-O-10, (S)-2-amino-N-(4-((tetrahydrofuran-3-yl)oxy)pyridin-3-yl)-5-(trifluoromethyl)pyrazolo[1,5-a]pyrimidine-3-carboxamide] | +++ (Compounds with a Cisplatin sensitization value of <0.02 μM are marked with “+++.”) | 10 to 1000
2 | COc1ccncc1NC(=O)c1c(N)nn2ccc(N3CCN(C)CC3)nc12 [I-O-78, 2-amino-N-(4-methoxypyridin-3-yl)-5-(4-methylpiperazin-1-yl)pyrazolo[1,5-a]pyrimidine-3-carboxamide] | + (Compounds with a Cisplatin sensitization value >0.2 μM but <5 μM are marked with “+.”) | 10 to 1000
3 | COc1c(Cl)cncc1NC(=O)c1c(N)nn2ccc(C(F)(F)F)nc12 [I-O-48, 2-amino-N-(5-chloro-4-methoxypyridin-3-yl)-5-(trifluoromethyl)pyrazolo[1,5-a]pyrimidine-3-carboxamide] | ++ (Compounds with a Cisplatin sensitization value>0.02 μM but <0.2 μM are marked with “++.”) | 10 to 1000
4 | CN(C)C1CCC(Oc2ccncc2NC(=O)c2c(N)nn3ccc(C(F)(F)F)nc23)CC1 (stereo not drawn) [I-O-35, 2-amino-N-(4-((4-(dimethylamino)cyclohexyl)oxy)pyridin-3-yl)-5-(trifluoromethyl)pyrazolo[1,5-a]pyrimidine-3-carboxamide] | +++ (Compounds with a Cisplatin sensitization value of <0.02 μM are marked with “+++.”) | 10 to 1000
5 | CN(C)[C@H]1CC[C@@H](Oc2ccncc2NC(=O)c2c(N)nn3ccc(C(F)(F)F)nc23)CC1 [I-O-30, 2-amino-N-(4-(((1s,4s)-4-(dimethylamino)cyclohexyl)oxy)pyridin-3-yl)-5-(trifluoromethyl)pyrazolo[1,5-a]pyrimidine-3-carboxamide] | +++ (Compounds with a Cisplatin sensitization value of <0.02 μM are marked with “+++.”) | 10 to 1000
6 | COc1ccncc1NC(=O)c1c(N)nn2ccc(OCCN3CCCC3)nc12 [I-O-60, 2-amino-N-(4-methoxypyridin-3-yl)-5-(2-(pyrrolidin-1-yl)ethoxy)pyrazolo[1,5-a]pyrimidine-3-carboxamide] | ++ (Compounds with a Cisplatin sensitization value>0.02 μM but <0.2 μM are marked with “++.”) | 10 to 1000
7 | COc1ccncc1NC(=O)c1c(N)nn2ccc(CO)nc12 [I-O-54, 2-amino-5-(hydroxymethyl)-N-(4-methoxypyridin-3-yl)pyrazolo[1,5-a]pyrimidine-3-carboxamide] | ++ (Compounds with a Cisplatin sensitization value>0.02 μM but <0.2 μM are marked with “++.”) | 10 to 1000
8 | CN1CC[C@@H](Oc2ccncc2NC(=O)c2c(N)nn3ccc(C(F)(F)F)nc23)C1 [I-O-19, (R)-2-amino-N-(4-((1-methylpyrrolidin-3-yl)oxy)pyridin-3-yl)-5-(trifluoromethyl)pyrazolo[1,5-a]pyrimidine-3-carboxamide] | ++ (Compounds with a Cisplatin sensitization value>0.02 μM but <0.2 μM are marked with “++.”) | 10 to 1000
9 | CN(C)[C@H]1C[C@@H](Oc2ccncc2NC(=O)c2c(N)nn3ccc(C(F)(F)F)nc23)C1 [I-O-34, 2-amino-N-(4-((1s,3s)-3-(dimethylamino)cyclobutoxy)pyridin-3-yl)-5-(trifluoromethyl)pyrazolo[1,5-a]pyrimidine-3-carboxamide] | ++ (Compounds with a Cisplatin sensitization value>0.02 μM but <0.2 μM are marked with “++.”) | 10 to 1000
10 | CN1CCC(Oc2c(Cl)cncc2NC(=O)c2c(N)nn3ccc(C(F)(F)F)nc23)CC1 [I-O-49, 2-amino-N-(5-chloro-4-((1-methylpiperidin-4-yl)oxy)pyridin-3-yl)-5-(trifluoromethyl)pyrazolo[1,5-a]pyrimidine-3-carboxamide] | + (Compounds with a Cisplatin sensitization value >0.2 μM but <5 μM are marked with “+.”) | 1000 to 5000
11 | CC(C)Oc1ccncc1NC(=O)c1c(N)nn2ccc(N3CCN(C)CC3)nc12 [I-O-79, 2-amino-N-(4-isopropoxypyridin-3-yl)-5-(4-methylpiperazin-1-yl)pyrazolo[1,5-a]pyrimidine-3-carboxamide] | + (Compounds with a Cisplatin sensitization value >0.2 μM but <5 μM are marked with “+.”) | 1000 to 5000
12 | CN(C)C1CCC(Oc2ccncc2NC(=O)c2c(N)nn3ccc(C(F)(F)F)nc23)CC1 (stereo not drawn) [I-O-44, 2-amino-N-(4-(((1s,4s)-4-(dimethylamino)cyclohexyl)oxy)pyridin-3-yl)-5-(trifluoromethyl)pyrazolo[1,5-a]pyrimidine-3-carboxamide] | + (Compounds with a Cisplatin sensitization value >0.2 μM but <5 μM are marked with “+.”) | 1000 to 5000
13 | CN1CCCC(Oc2ccncc2NC(=O)c2c(N)nn3ccc(C(F)(F)F)nc23)C1 (stereo not drawn) [I-O-26, 2-amino-N-(4-((1-methylpiperidin-3-yl)oxy)pyridin-3-yl)-5-(trifluoromethyl)pyrazolo[1,5-a]pyrimidine-3-carboxamide] | +++ (Compounds with a Cisplatin sensitization value of <0.02 μM are marked with “+++.”) | 10 to 1000
14 | COc1ccncc1NC(=O)c1c(N)nn2ccc(NCCN(C)C)nc12 [I-O-70, 2-amino-5-((2-(dimethylamino)ethyl)amino)-N-(4-methoxypyridin-3-yl)pyrazolo[1,5-a]pyrimidine-3-carboxamide] | + (Compounds with a Cisplatin sensitization value >0.2 μM but <5 μM are marked with “+.”) | 10 to 1000
15 | COc1ccncc1NC(=O)c1c(N)nn2ccc(OC3CCN(C)CC3)nc12 [I-O-61, 2-amino-N-(4-methoxypyridin-3-yl)-5-((1-methylpiperidin-4-yl)oxy)pyrazolo[1,5-a]pyrimidine-3-carboxamide] | ++ (Compounds with a Cisplatin sensitization value>0.02 μM but <0.2 μM are marked with “++.”) | 10 to 1000
16 | COc1ccncc1NC(=O)c1c(N)nn2ccc(OC3COC3)nc12 [I-O-56, 2-amino-N-(4-methoxypyridin-3-yl)-5-(oxetan-3-yloxy)pyrazolo[1,5-a]pyrimidine-3-carboxamide] | +++ (Compounds with a Cisplatin sensitization value of <0.02 μM are marked with “+++.”) | 10 to 1000
17 | COc1ccncc1NC(=O)c1c(N)nn2ccc(OCCN3CCC3)nc12 [I-O-59, 2-amino-5-(2-(azetidin-1-yl)ethoxy)-N-(4-methoxypyridin-3-yl)pyrazolo[1,5-a]pyrimidine-3-carboxamide] | ++ (Compounds with a Cisplatin sensitization value>0.02 μM but <0.2 μM are marked with “++.”) | 10 to 1000
18 | COc1ccncc1NC(=O)c1c(N)nn2ccc(NCC3COC3)nc12 [I-O-68, 2-amino-N-(4-methoxypyridin-3-yl)-5-((oxetan-3-ylmethyl)amino)pyrazolo[1,5-a]pyrimidine-3-carboxamide] | ++ (Compounds with a Cisplatin sensitization value>0.02 μM but <0.2 μM are marked with “++.”) | < 10
19 | COc1ccncc1NC(=O)c1c(N)nn2ccc(NCC3CCCN3C)nc12 (stereo not drawn) [I-O-71] | + (Compounds with a Cisplatin sensitization value >0.2 μM but <5 μM are marked with “+.”) | 10 to 1000
20 | Nc1nn2ccc(C(F)(F)F)nc2c1C(=O)Nc1cnccc1OCC1CC1 [I-O-6, 2-amino-N-(4-(cyclopropylmethoxy)pyridin-3-yl)-5-(trifluoromethyl)pyrazolo[1,5-a]pyrimidine-3-carboxamide] | +++ (Compounds with a Cisplatin sensitization value of <0.02 μM are marked with “+++.”) | < 10
21 | Nc1nn2ccc(C(F)(F)F)nc2c1C(=O)Nc1cnccc1OCC(F)(F)F [I-O-3, 2-amino-N-(4-(2,2,2-trifluoroethoxy)pyridin-3-yl)-5-(trifluoromethyl)pyrazolo[1,5-a]pyrimidine-3-carboxamide] | +++ (Compounds with a Cisplatin sensitization value of <0.02 μM are marked with “+++.”) | < 10
